The record followed here is US20040043959A1, “Combination therapies for treating methylthioadenosine phosphorylase deficient cells” (priority 2002, published 2004).

The test deals with T1, Human MTAP (Homo sapiens, UniProt Q13126).
T1 construct: six-histidine tag (His6) (N); made in house; host or cells: E. coli BL21 DE3
T1 sequence (Q13126 1-283): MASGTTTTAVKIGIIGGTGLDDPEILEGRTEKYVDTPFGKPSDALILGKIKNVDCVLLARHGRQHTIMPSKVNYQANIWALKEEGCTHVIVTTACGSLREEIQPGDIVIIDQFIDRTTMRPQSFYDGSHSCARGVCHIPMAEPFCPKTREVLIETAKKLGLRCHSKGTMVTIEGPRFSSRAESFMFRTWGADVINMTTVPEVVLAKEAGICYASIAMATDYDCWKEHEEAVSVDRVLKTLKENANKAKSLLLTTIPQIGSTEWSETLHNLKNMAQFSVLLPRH
The experiment in a line: MTAP substrate assay, coupled spectrophotometric (adenine, xanthine oxidase). The test is classed as biochemical. To be noted: 2 nM MTAP; for activity at 50 µM: 10 min, compound 50 uM, relative to MTA at 50 uM, read-out: MT-A—50: initial velocity as a percentage of the initial velocity with MTA as substrate; for MT-A—10: initial velocity as a percentage of the initial velocity with MTA as substrate: compound 10 uM, relative to MTA at 10 uM. In outline:
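Detection was xanthine oxidase-coupled (0.8 units/ml), reading adenine-derived absorbance at 305 nm over 10 min in potassium phosphate/DTT buffer at 37° C, with N-His6 enzyme purified from E. coli.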

`N#Cc1cccnc1SC[C@H]1O[C@@H](n2cnc3c(N)ncnc32)[C@H](O)[C@@H]1O` [2(G)(89), 2-({[(2S, 3S, 4R, 5R)-5-(6-amino-9H-purin-9-yl)-3,4-dihydroxytetrahydro-furan-2-yl]methyl}thio)nicotinonitrile]: the activity at 50 µM came out at 5% and the “MT-A—10: initial velocity as a percentage of the initial velocity with MTA as substrate” value was 3%.
For `Nc1ncnc2c1ncn2[C@@H]1O[C@H](CSc2cccc(C(=O)O)c2)[C@@H](O)[C@H]1O` [2(G)(90), 3-({[(2S, 3S, 4R, 5R)-5-(6-amino-9H-purin-9-yl)-3,4-dihydroxytetrahydro-furan-2-yl]methyl}thio)benzoic acid], in that order: 8% and 3%.
In the same order, the values of `Nc1ncnc2c1ncn2[C@@H]1O[C@H](CSc2ccccc2[N+](=O)[O-])[C@@H](O)[C@H]1O` [2(G)(91), (2R, 3R, 4S, 5S)-2-(6-amino-9H-purin-9-yl)-5-{[(2-nitrophenyl)thio]-methyl}tetrahydrofuran-3,4-diol] are 5% and 5%.
In the same order, the values of `COC(=O)CCSC[C@H]1O[C@@H](n2cnc3c(N)ncnc32)[C@H](O)[C@@H]1O` [2(G)(92), methyl 3-({[(2S, 3S, 4R, 5R)-5-(6-amino-9H-purin-9-yl)-dihydroxytetra-hydrofuran-2-yl]-methyl}thio)propanoate] are 36% and 27%.
Consider `Nc1ncnc2c1ncn2[C@@H]1O[C@H](CSCc2csc3ccccc23)[C@@H](O)[C@H]1O` [2(G)(93), (2R, 3R, 4S, 5S)-2-(6-amino-9H-purin-9-yl)-5-{[(1-benzothien-3-ylmethyl)thio]methyl}tetrahydrofuran-3,4-diol], for which the activity at 50 µM stood at 17% and the “MT-A—10: initial velocity as a percentage of the initial velocity with MTA as substrate” value was found to be 18%.
For `Nc1ncnc2c1ncn2[C@@H]1O[C@H](CSc2nccnc2CCc2ccccc2)[C@@H](O)[C@H]1O` [2(G)(94), (2R, 3R, 4S, 5S)-2-(6-amino-9H-purin-9-yl)-5-({[3-(2-phenylethyl)-pyrazin-2-yl]thio}methyl)tetrahydrofuran-3,4-diol], in that order: 5% and 5%.
For the compound `Nc1ncnc2c1ncn2[C@@H]1O[C@H](CSc2ccc(C(=O)O)cc2)[C@@H](O)[C@H]1O` [2(G)(95), 4-({[(2S, 3S, 4R, 5R)-5-(6-amino-9H-purin-9-yl)-3,4-dihydroxytetrahydro-furan-2-yl]methyl}thio)-benzoic acid], the activity at 50 µM is 7% and the “MT-A—10: initial velocity as a percentage of the initial velocity with MTA as substrate” value was found to be 7%.
Turning to `Nc1ncnc2c1ncn2[C@@H]1O[C@H](CSc2ccccc2Cl)[C@@H](O)[C@H]1O` [2(G)(96), (2R, 3R, 4S, 5S)-2-(6-amino-9H-purin-9-yl)-5-{((2-chlorophenyl)thio]-methyl}tetrahydrofuran-3,4-diol], the activity at 50 µM came out at 6% and the “MT-A—10: initial velocity as a percentage of the initial velocity with MTA as substrate” value worked out at 5%.
In the same order, the values of `Nc1ncnc2c1ncn2[C@@H]1O[C@H](CSc2cc(Cl)ccc2Cl)[C@@H](O)[C@H]1O` [2(G)(97), (2R, 3R, 4S, 5S)-2-(6-amino-9H-purin-9-yl)-5-{[(2,5-dichlorophenyl)-thio]methyl}tetrahydro-furan-3,4-diol] are 6% and 5%.
In the same order, the values of `Nc1ncnc2c1ncn2[C@@H]1O[C@H](CSc2cccc(Cl)c2)[C@@H](O)[C@H]1O` [2(G)(98), (2R, 3R, 4S, 5S)-2-(6-amino-9H-purin-9-yl)-5-{[(3-chlorophenyl)thio]-methyl}tetrahydrofuran-3,4-diol] are 18% and 20%.
Consider `Nc1ncnc2c1ncn2[C@@H]1O[C@H](CSc2cccc(C(F)(F)F)c2)[C@@H](O)[C@H]1O` [2(G)(99), (2R, 3R,4S, 5S)-2-(6-amino-9H-purin-9-yl)-5-({[3-(trifluoromethyl)-phenyl]thio}methyl)-tetrahydrofuran-3,4-diol], for which the activity at 50 µM is 18% and the “MT-A—10: initial velocity as a percentage of the initial velocity with MTA as substrate” value was determined as 17%.
`Cc1nccnc1SC[C@H]1O[C@@H](n2cnc3c(N)ncnc32)[C@H](O)[C@@H]1O` [2(G)(100), (2R, 3R, 4S, 5S)-2-(6-amino-9H-purin-9-yl)-5-{[(3-methylpyrazin-2-yl)thio]methyl}tetrahydro-furan-3,4-diol]: the activity at 50 µM was 10% and the “MT-A—10: initial velocity as a percentage of the initial velocity with MTA as substrate” value was 7%.
In the same order, the values of `Nc1ncnc2c1ncn2[C@@H]1O[C@H](CSc2cccc(O)c2)[C@@H](O)[C@H]1O` [2(G)(101), (2R, 3R, 4S, 5S)-2-(6-amino-9H-purin-9-yl)-5-{[(3-hydroxyphenyl)-thio]methyl}tetrahydro-furan-3,4-diol] are 38% and 36%.
For `Nc1ncnc2c1ncn2[C@@H]1O[C@H](CSc2c(Cl)cccc2Cl)[C@@H](O)[C@H]1O` [2(G)(102), (2R, 3R, 4S, 5S)-2-(6-amino-9H-purin-9-yl)-5-{[(2,6-dichIorophenyl)-thio]methyl}tetrahydro-furan-3,4-diol], in that order: 3% and 2%.
In the same order, the values of `Nc1ncnc2c1ncn2[C@@H]1O[C@H](CSc2ccc(C(F)(F)F)cc2[N+](=O)[O-])[C@@H](O)[C@H]1O` [2(G)(103), (2R, 3R, 4S, 5S)-2-(6-amino-9H-purin-9-yl)-5-({[2-nitro-4-(trifluoromethyl)phenyl]thio}methyl)tetrahydro-furan-3,4-diol] are 4% and 3%.
Regarding `Nc1ncnc2c1ncn2[C@@H]1O[C@H](CSCC(=O)Nc2ccccc2)[C@@H](O)[C@H]1O` [2(G)(104), 2-({[(2S, 3S, 4R, 5R)-5-(6-amino-9H-purin-9-yl)-3,4-dihydroxytetrahydro-furan-2-yl]methyl}thio)-N-phenylacetamide], the activity at 50 µM was found to be 15% and the “MT-A—10: initial velocity as a percentage of the initial velocity with MTA as substrate” value turned out to be 5%.
Regarding `Nc1ncnc2c1ncn2[C@@H]1O[C@H](CSc2ccc([N+](=O)[O-])cn2)[C@@H](O)[C@H]1O` [2(G)(105), (2R, 3R, 4S, 5S)-2-(6-amino-9H-purin-9-yl)-5-{[(5-nitropyridin-2-yl)thio]methyl}tetrahydro-furan-3,4-diol], the activity at 50 µM was found to be 21% and the “MT-A—10: initial velocity as a percentage of the initial velocity with MTA as substrate” value is on record as 17%.
For `Nc1ncnc2c1ncn2[C@@H]1O[C@H](CSc2c[nH]c3ccccc23)[C@@H](O)[C@H]1O` [2(G)(106), (2R, 3R, 4S, 5S)-2-(6-amino-9H-purin-9-yl)-5-[(1H-indol-3-ylthio)-methyl]-tetrahydrofuran-3,4-diol], in that order: 3% and 6%.
In the same order, the values of `COC(=O)c1ccccc1SC[C@H]1O[C@@H](n2cnc3c(N)ncnc32)[C@H](O)[C@@H]1O` [2(G)(107), methyl 2-({[(2S, 3S, 4R, 5R)-5-(6-amino-9H-purin-9-yl)-3,4-dihydroxy-tetrahydrofuran-2-yl]-methyl}thio)-benzoate] are 2% and 4%.
For `Nc1ncnc2c1ncn2[C@@H]1O[C@H](CSc2ccc(/C=C/C(=O)O)cc2)[C@@H](O)[C@H]1O` [2(G)(108), (2E)-3-[4-({[(2S, 3S, 4R, 5R)-5-(6-amino-9H-purin-9-yl)-3,4-dihydroxytetra-hydrofuran-2-yl]methyl}thio)phenyl]acrylic acid], in that order: 19% and 8%.
With `COC(=O)c1cccc(SC[C@H]2O[C@@H](n3cnc4c(N)ncnc43)[C@H](O)[C@@H]2O)c1` [2(G)(109), methyl 3-({[(2S, 3S, 4R, 5R)-5-(6-amino-9H-purin-9-yl)-1,3,4-dihydroxytetra-hydrofuran-2-yl]methyl}thio)benzoate], the activity at 50 µM stood at 8% and the “MT-A—10: initial velocity as a percentage of the initial velocity with MTA as substrate” value is 8%.
As for `COC(=O)/C=C/c1ccc(SC[C@H]2O[C@@H](n3cnc4c(N)ncnc43)[C@H](O)[C@@H]2O)cc1` [2(G)(110), methyl (2E)-3-[4-({[(2S, 3S, 4R, 5R)-5-(6-amino-9H-purin-9-yl)-dihydroxy-tetrahydrofuran-2-yl]-methyl}thio)phenyl]-acrylate], the activity at 50 µM came out at 9% and the “MT-A—10: initial velocity as a percentage of the initial velocity with MTA as substrate” value stood at 15%.
In the same order, the values of `COc1cccc(-c2nnc(SC[C@H]3O[C@@H](n4cnc5c(N)ncnc54)[C@H](O)[C@@H]3O)n2C)c1` [2(G)(111), (2R, 3R, 4S, 5S)-2-(6-amino-9H-purin-9-yl)-5-({[5-(3-methoxyphenyl)-4-methyl-4H-1,2,4-triazol-3-yl]thio}-methyl)tetrahydrofuran-3,4-diol] are 4% and 8%.
